# In US9695155B2, “Herbicidal substituted pyrimidinyloxy benzene compounds” (E. I. DU PONT DE NEMOURS AND COMPANY, priority 2013, dated 2017):
# Legend:
# [1] = test system: large (Lg) crabgrass; assay: Test C postemergence; assay type: in vivo, Digitaria sanguinalis; settings: for Crabgrass, Large plant response rating: 31 g ai/ha; for Crabgrass, Large plant response rating / Plant response rating, Crabgrass, Large: scale 0 to 100 (0 no effect, 100 complete control)
# Procedure, shortened: (§1)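 Sown in loam/sand → sprayed pre-emergence; or grown to 1–4 leaves in peat mix → sprayed post-emergence. Same solvent/surfactant formulation both ways. Greenhouse 13–15 d. Score 0–100 visual.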
# [2] = test system: johnsongrass; assay: Test C postemergence; assay type: in vivo, Sorghum halepense; settings: for Johnsongrass plant response rating: 31 g ai/ha; for Johnsongrass plant response rating / Plant response rating, Johnsongrass: scale 0 to 100 (0 no effect, 100 complete control)
# Procedure, shortened: as §1
# [3] = test system: large (Lg) crabgrass; assay: Test A preemergence; assay type: in vivo, Digitaria sanguinalis; settings: for Crabgrass, Large plant response rating (0 to 100 scale): 125 g ai/ha; for Crabgrass, Large plant response rating: 500 g ai/ha, 0 to 100 scale where 0 is no effect and 100 is complete control
# Procedure, shortened: (§2)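 Pre- and postemergence greenhouse screen. Soil: loam + sand. Spray carrier: solvent mixture, non-phytotoxic, with surfactant. Post timing at 1–2 leaves, height 2–10 cm. Readout: visual injury on a 0–100 scale roughly 10 days after application, untreated plants as reference.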
# [4] = test system: wild oat; assay: Test C postemergence; assay type: in vivo, Avena fatua; settings: for Oat, Wild plant response rating: 31 g ai/ha; for Oat, Wild plant response rating / Plant response rating, Oat, Wild: scale 0 to 100 (0 no effect, 100 complete control)
# Procedure, shortened: as §1
# [5] = test system: morningglory; assay: Test A preemergence; assay type: in vivo, Ipomoea spp.; settings: for Morningglory plant response rating (0 to 100 scale): 125 g ai/ha; for Morningglory plant response rating: 500 g ai/ha, 0 to 100 scale where 0 is no effect and 100 is complete control
# Procedure, shortened: as §2
# [6] = test system: velvetleaf; assay: Test A preemergence; assay type: in vivo, Abutilon theophrasti; settings: for Velvetleaf plant response rating (0 to 100 scale): 125 g ai/ha; for Velvetleaf plant response rating: 500 g ai/ha, 0 to 100 scale where 0 is no effect and 100 is complete control
# Procedure, shortened: as §2
# [7] = test system: morningglory; assay: Test A postemergence; assay type: in vivo, Ipomoea spp.; settings: 0 to 100 scale where 0 is no effect and 100 is complete control; for Morningglory plant response rating: 125 g ai/ha; for Plant response rating, Morningglory: 500 g ai/ha
# Procedure, shortened: as §2
# [8] = test system: Italian ryegrass; assay: Test C postemergence; assay type: in vivo, Lolium multiflorum; settings: for Ryegrass, Italian plant response rating: 31 g ai/ha; for Ryegrass, Italian plant response rating / Plant response rating, Ryegrass, Italian: scale 0 to 100 (0 no effect, 100 complete control)
# Procedure, shortened: as §1
# [9] = test system: giant foxtail; assay: Test C postemergence; assay type: in vivo, Setaria faberii; settings: for Foxtail, Giant plant response rating: 31 g ai/ha; for Foxtail, Giant plant response rating / Plant response rating, Foxtail, Giant: scale 0 to 100 (0 no effect, 100 complete control)
# Procedure, shortened: as §1
# [10] = test system: chickweed; assay: Test C postemergence; assay type: in vivo, Stellaria media; settings: for Chickweed plant response rating: 31 g ai/ha; for Chickweed plant response rating / Plant response rating, Chickweed: scale 0 to 100 (0 no effect, 100 complete control)
# Procedure, shortened: as §1
# [11] = test system: giant foxtail; assay: Test A preemergence; assay type: in vivo, Setaria faberii; settings: for Foxtail, Giant plant response rating (0 to 100 scale): 125 g ai/ha; for Foxtail, Giant plant response rating: 500 g ai/ha, 0 to 100 scale where 0 is no effect and 100 is complete control
# Procedure, shortened: as §2
# [12] = test system: waterhemp; assay: Test C postemergence; assay type: in vivo, Amaranthus rudis; settings: for Waterhemp plant response rating: 31 g ai/ha; for Waterhemp plant response rating / Plant response rating, Waterhemp: scale 0 to 100 (0 no effect, 100 complete control)
# Procedure, shortened: as §1
# [13] = test system: blackgrass; assay: Test C postemergence; assay type: in vivo, Alopecurus myosuroides; settings: for Blackgrass plant response rating: 31 g ai/ha; for Blackgrass plant response rating / Plant response rating, Blackgrass: scale 0 to 100 (0 no effect, 100 complete control)
# Procedure, shortened: as §1
# [14] = test system: yellow nutsedge; assay: Test C postemergence; assay type: in vivo, Cyperus esculentus; settings: for Nutsedge, Yellow plant response rating: 31 g ai/ha; for Nutsedge, Yellow plant response rating / Plant response rating, Nutsedge, Yellow: scale 0 to 100 (0 no effect, 100 complete control)
# Procedure, shortened: as §1
# [15] = test system: corn; assay: Test C postemergence; assay type: in vivo, Zea mays; settings: for Corn plant response rating: 31 g ai/ha; for Corn plant response rating / Plant response rating, Corn: scale 0 to 100 (0 no effect, 100 complete control)
# Procedure, shortened: as §1
# [16] = 16 g ai/ha, postemergence, 0 is no effect, 100 is complete control
# [17] = postemergence, visual rating, 13 to 15 days
# [18] = 125 g ai/ha, postemergence, visual rating
# [19] = Postemergence, 62 g ai/ha, 13 to 15 days
smiles,measurement,setting,value
FC(F)c1cnn(-c2c(Cl)cccc2Oc2ncc(Cl)cn2)c1 [Compound 192],"Plant response rating (0 to 100), Crabgrass, Large",[1]; [16],5
same,"Crabgrass, Large plant response rating",[1]; [17],10
same,"Plant response rating, Crabgrass, Large",[1]; [18],5
same,"Plant response rating, Crabgrass, Large",[1]; [19],5
same,"Plant response rating (0 to 100), Johnsongrass",[2]; [16],5
same,Johnsongrass plant response rating,[2]; [17],10
same,"Plant response rating, Johnsongrass",[2]; [18],10
same,"Plant response rating, Johnsongrass",[2]; [19],5
same,"Crabgrass, Large plant response rating (0 to 100 scale)",[3],100
same,"Crabgrass, Large plant response rating",[3],100
same,"Plant response rating (0 to 100), Oat, Wild",[4]; [16],0
same,"Oat, Wild plant response rating",[4]; [17],0
same,"Plant response rating, Oat, Wild",[4]; [18],5
same,"Plant response rating, Oat, Wild",[4]; [19],5
same,Morningglory plant response rating (0 to 100 scale),[5],30
same,Morningglory plant response rating,[5],100
same,Velvetleaf plant response rating (0 to 100 scale),[6],90
same,Velvetleaf plant response rating,[6],100
same,Morningglory plant response rating,[7],80
same,"Plant response rating, Morningglory",[7],100
same,"Plant response rating (0 to 100), Ryegrass, Italian",[8]; [16],0
same,"Ryegrass, Italian plant response rating",[8]; [17],0
same,"Plant response rating, Ryegrass, Italian",[8]; [18],5
same,"Plant response rating, Ryegrass, Italian",[8]; [19],5
same,"Plant response rating (0 to 100), Foxtail, Giant",[9]; [16],5
same,"Foxtail, Giant plant response rating",[9]; [17],5
same,"Plant response rating, Foxtail, Giant",[9]; [18],10
same,"Plant response rating, Foxtail, Giant",[9]; [19],5
same,"Plant response rating (0 to 100), Chickweed",[10]; [16],45
same,Chickweed plant response rating,[10]; [17],50
same,"Plant response rating, Chickweed",[10]; [18],60
same,"Plant response rating, Chickweed",[10]; [19],70
same,"Foxtail, Giant plant response rating (0 to 100 scale)",[11],100
same,"Foxtail, Giant plant response rating",[11],100
same,"Plant response rating (0 to 100), Waterhemp",[12]; [16],40
same,Waterhemp plant response rating,[12]; [17],50
same,"Plant response rating, Waterhemp",[12]; [18],85
same,"Plant response rating, Waterhemp",[12]; [19],65
same,"Plant response rating (0 to 100), Blackgrass",[13]; [16],0
same,Blackgrass plant response rating,[13]; [17],0
same,"Plant response rating, Blackgrass",[13]; [18],10
same,"Plant response rating, Blackgrass",[13]; [19],5
same,"Plant response rating (0 to 100), Nutsedge, Yellow",[14]; [16],5
same,"Nutsedge, Yellow plant response rating",[14]; [17],5
same,"Plant response rating, Nutsedge, Yellow",[14]; [18],40
same,"Plant response rating, Nutsedge, Yellow",[14]; [19],0
same,"Plant response rating (0 to 100), Corn",[15]; [16],0
same,Corn plant response rating,[15]; [17],5
same,"Plant response rating, Corn",[15]; [18],5
same,"Plant response rating, Corn",[15]; [19],5
N#Cc1cnn(-c2c(C#N)cccc2Oc2ncc(Cl)cn2)c1 [Compound 200],"Crabgrass, Large plant response rating",[1]; [17],5
same,"Plant response rating, Crabgrass, Large",[1]; [18],15
same,"Plant response rating (0 to 100), Crabgrass, Large","[1]; 250 g ai/ha, postemergence",20
same,"Plant response rating, Crabgrass, Large",[1]; [19],5
same,Johnsongrass plant response rating,[2]; [17],5
same,"Plant response rating, Johnsongrass",[2]; [18],5
same,"Plant response rating (0 to 100), Johnsongrass","[2]; 250 g ai/ha, postemergence",30
same,"Plant response rating, Johnsongrass",[2]; [19],5
same,"Crabgrass, Large plant response rating (0 to 100 scale)",[3],100
same,"Crabgrass, Large plant response rating",[3],100
same,"Oat, Wild plant response rating",[4]; [17],15
same,"Plant response rating, Oat, Wild",[4]; [18],25
same,"Plant response rating (0 to 100), Oat, Wild","[4]; 250 g ai/ha, postemergence",20
same,"Plant response rating, Oat, Wild",[4]; [19],15
same,Morningglory plant response rating (0 to 100 scale),[5],90
same,Morningglory plant response rating,[5],100
same,Velvetleaf plant response rating (0 to 100 scale),[6],100
same,Velvetleaf plant response rating,[6],100
same,Morningglory plant response rating,[7],90
same,"Plant response rating, Morningglory",[7],100
same,"Ryegrass, Italian plant response rating",[8]; [17],5
same,"Plant response rating, Ryegrass, Italian",[8]; [18],5
same,"Plant response rating (0 to 100), Ryegrass, Italian","[8]; 250 g ai/ha, postemergence",5
same,"Plant response rating, Ryegrass, Italian",[8]; [19],10
same,"Foxtail, Giant plant response rating",[9]; [17],5
same,"Plant response rating, Foxtail, Giant",[9]; [18],5
same,"Plant response rating (0 to 100), Foxtail, Giant","[9]; 250 g ai/ha, postemergence",15
same,"Plant response rating, Foxtail, Giant",[9]; [19],5
same,Chickweed plant response rating,[10]; [17],55
same,"Plant response rating, Chickweed",[10]; [18],95
same,"Plant response rating (0 to 100), Chickweed","[10]; 250 g ai/ha, postemergence",98
same,"Plant response rating, Chickweed",[10]; [19],75
same,"Foxtail, Giant plant response rating (0 to 100 scale)",[11],100
same,"Foxtail, Giant plant response rating",[11],100
same,Waterhemp plant response rating,[12]; [17],70
same,"Plant response rating, Waterhemp",[12]; [18],90
same,"Plant response rating (0 to 100), Waterhemp","[12]; 250 g ai/ha, postemergence",95
same,"Plant response rating, Waterhemp",[12]; [19],98
same,Blackgrass plant response rating,[13]; [17],5
same,"Plant response rating, Blackgrass",[13]; [18],10
same,"Plant response rating (0 to 100), Blackgrass","[13]; 250 g ai/ha, postemergence",35
same,"Plant response rating, Blackgrass",[13]; [19],5
same,"Nutsedge, Yellow plant response rating",[14]; [17],5
same,"Plant response rating, Nutsedge, Yellow",[14]; [18],30
same,"Plant response rating (0 to 100), Nutsedge, Yellow","[14]; 250 g ai/ha, postemergence",35
same,"Plant response rating, Nutsedge, Yellow",[14]; [19],5
same,Corn plant response rating,[15]; [17],5
same,"Plant response rating, Corn",[15]; [18],15
same,"Plant response rating (0 to 100), Corn","[15]; 250 g ai/ha, postemergence",20
same,"Plant response rating, Corn",[15]; [19],10
